pIC50: −log10 of the molar value.
What was measured:
[1] = design: method as in U.S. EPA 2012; details: EPI Suite, experimental preferred over modeled; ref U.S. EPA 2012; cited from earlier work
[2] = molecular target: T1, androgen receptor (AR) (Homo sapiens, UniProt P10275); test: AR-EcoScreen androgen receptor transcriptional activation assay (AR antagonism); type: cell-based
T1 construct: host or cells: AR-EcoScreen cells
T1 sequence (P10275 1-920): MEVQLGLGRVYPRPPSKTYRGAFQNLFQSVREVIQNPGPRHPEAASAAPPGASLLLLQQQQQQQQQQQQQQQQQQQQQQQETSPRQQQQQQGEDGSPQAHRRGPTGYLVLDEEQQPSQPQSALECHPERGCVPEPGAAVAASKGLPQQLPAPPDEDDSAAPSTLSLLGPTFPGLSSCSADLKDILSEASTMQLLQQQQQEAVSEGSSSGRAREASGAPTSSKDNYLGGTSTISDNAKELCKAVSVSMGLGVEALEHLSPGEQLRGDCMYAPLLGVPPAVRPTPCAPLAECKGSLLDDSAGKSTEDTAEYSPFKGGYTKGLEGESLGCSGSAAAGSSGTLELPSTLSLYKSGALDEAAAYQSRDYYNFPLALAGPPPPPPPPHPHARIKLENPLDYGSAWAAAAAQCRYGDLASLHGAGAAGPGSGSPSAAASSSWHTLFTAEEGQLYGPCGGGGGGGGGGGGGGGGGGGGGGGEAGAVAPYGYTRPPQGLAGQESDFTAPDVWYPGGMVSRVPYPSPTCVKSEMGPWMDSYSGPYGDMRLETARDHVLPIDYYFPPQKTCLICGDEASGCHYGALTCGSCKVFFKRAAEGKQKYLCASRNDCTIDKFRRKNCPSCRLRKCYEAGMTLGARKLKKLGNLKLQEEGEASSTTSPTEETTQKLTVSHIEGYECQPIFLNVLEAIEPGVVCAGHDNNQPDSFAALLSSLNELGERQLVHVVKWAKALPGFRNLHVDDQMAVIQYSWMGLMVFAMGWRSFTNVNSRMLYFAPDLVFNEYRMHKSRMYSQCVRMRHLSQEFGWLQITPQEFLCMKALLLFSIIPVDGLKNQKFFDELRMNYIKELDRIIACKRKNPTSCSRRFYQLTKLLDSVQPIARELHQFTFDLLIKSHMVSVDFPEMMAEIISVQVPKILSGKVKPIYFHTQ
Method: Experiments were run with three technical replicates and repeated three times. The mean value of technical replicates represents one biological replicate. AR-EcoScreen™ cells (JCRB1328; Japanese Collection of Research Bioresources) were grown in CellBIND® surface cell culture flasks (Corning Inc.) in growth medium consisting of Gibco® Dulbecco’s Modified Eagle’s Medium/F-12 (DMEM/F-12) Nutrient Mixture with L-glutamine and 4-(2-hydroxyethyl)-1-piperazineethanesulfonic acid (HEPES) and without phenol red supplemented with 5% fetal bovine serum (FBS), 1% penicillin-streptomycin, 200μg/mL Zeocin™ selection reagent, and 100μg/mL Hygromycin B (all reagents from Invitrogen, Life Technologies). The cells were incubated at 37°C in a humidified atmosphere of 5% carbon dioxide ( CO2 ) and 95% air. On the day before the experiment, cells were plated in white 96-well plates (Corning Inc.) at a density of 9,000 cells/well in assay medium consisting of Gibco® DMEM/F-12 Nutrient Mixture medium, 1% penicillin-streptomycin, with 5% dextran-coated charcoal-treated FBS (all reagents from Invitrogen, Life Technologies). On the following day, the medium was changed to assay medium containing the known AR agonist R1881 (Perkin Elmer) in 2-fold serial dilutions from 0.008 to 1 nM or the known AR antagonist hydroxyflutamide (CASRN 52806-53-8, Toronto Research Chemicals) in 3-fold serial dilutions from […] together with 0.1 nM R1881. […] The DMSO vehicle concentrations were kept constant in all wells (0.1%). Following approximately 20 h of exposure to test compounds firefly luminescence was measured in a luminometer (LUMIstar® Galaxy, BMG LABTECH) using Dual-Glo® Luciferase Reagent from the Dual-Glo® Luciferase Assay System from Promega. Cell viability was measured by Renilla luminescence using Dual-Glo® Stop & Glo® Reagent from the Dual-Glo® Luciferase Assay System.

[3] = PBK model first-order kinetic parameters fitted to in vivo ADME data; design: species or system rat
[4] = Fetal chemical exposure analysis (LC-QTOF) at GD21; type: in vivo, rat; details: fetal plasma GD21
Method: Dams were decapitated under CO2 /oxygen anesthesia at GD21 and fetuses collected by cesarean section. Prior to decapitation of the fetuses, their BWs and AGDs were recorded. Blood from the dams was collected in heparinized vacutainer tubes, centrifuged at 125×g for 10 min at 4°C to prepare plasma, and, together with the amniotic fluid, frozen directly. Pooled trunk blood from all female and male fetuses of the same litter (female and male blood separately) was collected into heparin-treated capillary tubes approximately 90 min after dosing and the plasma was prepared and stored at −80°C until analysis for pesticides and selected metabolites by liquid chromatography quadrupole time-of-flight mass spectroscopy (LC-QTOF). Details about the LC-QTOF analyses are provided in “Method S1” in Supplemental Material. Amniotic fluid was collected from fetuses by pipetting, pooled within each litter, snap frozen in liquid nitrogen, and subsequently stored at −80 °C .
Method S1. Chemical analysis of pesticide levels
Acetonitrile, methanol, formic acid and 25% ammonium hydroxide, all of LC-MS grade and ethyl acetate were obtained from Sigma Aldrich, Schneldorf, Germany. Isolute bulk C-18 sorbent was obtained from Biotage, Sweden and was washed with acetonitrile and ethyl acetate and dried prior to use. Water was purified on a Milli Q system, Millipore Corporation, US.
Pesticide standards were purchased from Dr. Ehrenstorfer (Augsburg, Germany), LGC-standards (Teddington, Middlesex, UK) and Sigma Aldrich (St. Louis, MO, USA). Acetonitrile used as solvents for the LC-QTOF was LiChrosolv Hypergrade. An ESI-L low concentration tuning mix from Agilent (Santa Clara, CA, USA) was used for tuning of the TOF. A reference solution was prepared containing Purine and HP0921 from Agilent (Santa Clara, CA, USA).
Stock solutions of the pesticides were prepared at 1 mg/ml in acetonitrile, methanol or toluene.
Standard mixtures containing the test compounds were prepared at a concentration of 10 µg/ml acetonitrile and used for preparation of calibration solutions. Isomers eluting very close to each other were avoided in these mixtures. […]
added 200 µl of ice-cold acetonitrile in Eppendorf tubes. Internal standard was added in the form of 10 µl TPP (5 µg/ml) and the extraction was performed by whirl mixing. The tube was then stored on ice for 5 min and then centrifuged at 10,000 x g for 10 min at 4 °C (Ole Dich Instrument, Denmark). An aliquot of the supernatant was transferred to filter vials (0.45 µm) and analysed by […]
Quality control samples were included in each analytical run. These were prepared using the same procedure as for the samples, though using amniotic fluid from untreated control Wistar rats extracted with acetonitrile containing three different levels of the relevant pesticide standards. The resulting spike levels were 0.04, 0.013 and 0.13 µg/ml. […]
fluid or plasma from Sprague Dawley rats was transferred to an Eppendorf vial and added 150 µl of acetonitrile. 50 mg of isolute C-18 sorbent was added to the tube, which was shaken for 5 min, […]
cooled to 4 °C and centrifuged at 10,000 x g for 10 min at 4 °C (Ole Dich Instrument makers, Denmark). 20 µl of the supernatant was transferred to an HPLC vial and mixed with 80 µl of 5%- 75% acetonitrile (this percentage was analyte dependent) prior to analysis by LC-MS.LC -QTOF […]
Pesticide screening was carried out using a liquid chromatography-electrospray ionization-quadrupole-time of flight-mass spectrometer.
The LC system was connected to a Bruker Daltonics, maXis qTOF mass spectrometer equipped with an electrospray ion source operated in positive ion mode (Bruker Daltonics, Bremen, Germany). The ion source settings were: nebulizer pressure 2 bars, drying gas flow 8 l/min, dry gas temperature 200 °C, capillary voltage 2500 V. The scan range was from 80 to 700 m/z with an acquisition rate of 2 Hz. Sodium formate dissolved in 50% 2-propanol was introduced in the ion […]

Q: Which results are given for `CONC(=O)Nc1ccc(Cl)c(Cl)c1` [DPMU, 1-(3,4-Dichlorophenyl)-3-methoxyurea]?
A: log Kow [1]: 2.70; pIC50 [2]: 5.40; Urine excretion rate from kidney (L/h) KUrine ([3]; PBK model parameter): 0.05 L/h; Metabolism rate in liver, Metabolite ([3]; conversion of parent compound into active metabolite): 0.22 L/h; Metabolism rate in liver, Total (L/h) KMetab ([3]; metabolic clearance, PBK model parameter): 0.02 L/h; Measured concentration in male fetuses ([4]; dams dosed linuron 25 mg/kg BW per day): 5.0 µM; Measured concentration in male fetuses ([4]; dams dosed linuron 50 mg/kg BW per day): 9.6 µM; Measured concentration in male fetuses ([4]; dams dosed linuron 75 mg/kg BW per day): 21.4 µM

Reference: publication PMC7687371, “Quantitative in Vitro to in Vivo Extrapolation (QIVIVE) for Predicting Reduced Anogenital Distance Produced by Anti-Androgenic Pesticides in a Rodent Model for Male Reproductive Disorders” (Environmental Health Perspectives, 2020)
